The record followed here is US8263606B2 (Xenon Pharmaceuticals Inc., priority 2008, dated 2012).

One data set addresses CYP3A4 (Homo sapiens, UniProt P08684). Briefly: Cytochrome P450 (CYP450) Inhibition Assay, CYP3A4 (Vivid fluorescence, BOMCC substrate). The note with it: human, P450 Baculosomes (recombinant CYP3A4), probe BOMCC (Vivid substrate).
The subject of the next data set is sodium channel. The data set can be described thus: Guanidine influx assay (14C-guanidine radiotracer flux, in vitro). The class given is cell-based, human or rat. The note with it: guanidine influx assay using a known cell line that expresses a sodium channel; activity level class. Summed up: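 Cells (human/rat Nav, endogenous or recombinant), ~100,000/well, 20-24 h 37 °C/5% CO2. Wash LNHBSS (150 mM choline Cl, HEPES, glucose). Add cpd + aconitine/14C-guanidine mix, RT. Wash, dry, scintillation count. IC50: 4-PL fit; selectivity as IC50 ratio vs reference channel, e.g. Nav1.5.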

The structures appear in SMILES notation. pIC50: −log10 of the molar value. Where only a bound is given, the exact number is not on record here.

CYP3A4, sequence (P08684 whole entry): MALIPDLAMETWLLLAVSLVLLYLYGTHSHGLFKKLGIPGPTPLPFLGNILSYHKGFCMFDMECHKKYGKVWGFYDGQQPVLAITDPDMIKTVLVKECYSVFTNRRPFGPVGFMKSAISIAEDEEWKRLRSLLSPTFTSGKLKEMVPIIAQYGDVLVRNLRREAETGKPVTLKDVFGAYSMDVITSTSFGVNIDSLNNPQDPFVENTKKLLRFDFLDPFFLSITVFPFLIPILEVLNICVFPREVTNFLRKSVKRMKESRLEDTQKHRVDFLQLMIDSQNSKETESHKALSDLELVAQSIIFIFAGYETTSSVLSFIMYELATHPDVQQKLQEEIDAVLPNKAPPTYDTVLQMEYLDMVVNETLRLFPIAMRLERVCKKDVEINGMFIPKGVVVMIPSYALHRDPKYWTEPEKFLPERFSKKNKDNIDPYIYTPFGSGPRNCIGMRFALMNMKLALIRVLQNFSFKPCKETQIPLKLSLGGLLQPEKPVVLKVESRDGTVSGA

The term inhibition denotes the drop in the measured response relative to a control, in per cent. As a reminder, the pIC50 is the IC50 on a negative log10 scale, so that one unit is a factor of ten. As usually defined, the melting point is the temperature of the solid-liquid transition. The compound `O=C1N(Cc2cccc(Cl)n2)c2ccccc2C12COc1cc3c(cc12)OCCO3` (stereo not drawn) [Example 5.13, 1′-[(6-chloropyridin-2-yl)methyl]-2,3-dihydrospiro[furo[2,3-g][1,4]benzodioxine-8,3′-indol]-2′(1′H)-one] gave a melting point of 181 to 182 °C. Moreover, the inhibition at 10 µM on CYP3A4 is more than 50%. In addition, the pIC50 in the data set on sodium channel was 7.00 to 9.00.
The matching figures for `COc1ccc(CN2C(=O)C3(COc4cc5c(cc43)OCCO5)c3ccccc32)cn1` (stereo not drawn) [Example 5.15, 1′-[(6-methoxypyridin-3-yl)methyl]-2,3-dihydrospiro[furo[2,3-g][1,4]-benzodioxine-8,3′-indol]-2′(1′H)-one]: 161 to 162 °C, less than 50% and 7.00 to 9.00.
The matching figures for `O=C1N(Cc2cnccn2)c2ccccc2[C@]12COc1cc3c(cc12)OCCO3` [Example 5.16, (8S)-1′-(pyrazin-2-ylmethyl)-2,3-dihydrospiro[furo[2,3-g][1,4]benzodioxine-8,3′-indol]-2′(1′H)-one]: 216 to 218 °C, less than 50% and 7.00 to 9.00.
In the case of `CN1C(=O)C2(C(=O)N(Cc3ccccn3)c3ccccc32)c2cc3c(cc21)OCCO3` (stereo not drawn) [Example 5.19, 6-methyl-1′-(pyridin-2-ylmethyl)-2,3-dihydrospiro[1,4-dioxino[2,3-f]indole-8,3′-indole]-2′,7(1H,6H)-dione], the melting point is 87 to 89 °C. Besides, the inhibition at 10 µM at CYP3A4 is less than 50%. For the same compound, the pIC50 with sodium channel is 5.00 to 6.00.
The matching figures for `O=C1N(CC2CC2(F)F)c2ccccc2C12COc1cc3c(cc12)OCCO3` (stereo not drawn) [Example 5.21, 1′-[(2,2-difluorocyclopropyl)methyl]-2,3-dihydrospiro[furo[2,3-g][1,4]benzodioxine-8,3′-indol]-2′(1′H)-one]: 162 to 164 °C, less than 50% and 7.00 to 9.00.
`CN1C(=O)C2(COc3cc4c(cc32)OCCO4)c2ccccc21` (stereo not drawn) [Example 5.22, 1′-methyl-2,3-dihydrospiro[furo[2,3-g][1,4]benzodioxine-8,3′-indol]-2′(1′H)-one]: the melting point lay in the range of 152 to 154 °C. On CYP3A4, the inhibition at 10 µM is less than 50%. For the same compound, the pIC50 in the data set on sodium channel was 7.00 to 9.00.
The matching figures for `O=C1N(Cc2nc(C(F)(F)F)cs2)c2ccccc2C12COc1cc3c(cc12)OCCO3` (stereo not drawn) [Example 5.23, 1′-{[4-(trifluoromethyl)-1,3-thiazol-2-yl]methyl}-2,3-dihydrospiro[furo[2,3-g][1,4]benzodioxine-8,3′-indol]-2′(1′H)-one]: 169 to 170 °C, more than 50% and 7.00 to 9.00.
The matching figures for `O=C1N(Cc2ncccn2)c2ccccc2C12COc1cc3c(cc12)OCCO3` (stereo not drawn) [Example 5.32, 1′-(pyrimidin-2-ylmethyl)-2,3-dihydrospiro[furo[2,3-g][1,4]-benzodioxine-8,3′-indol]-2′(1′H)-one]: 278 to 279 °C, less than 50% and 7.00 to 9.00.
The matching figures for `COc1cc(OC)nc(CN2C(=O)C3(COc4cc5c(cc43)OCCO5)c3ccccc32)n1` (stereo not drawn) [Example 5.33, 1′-[(4,6-dimethoxypyrimidin-2-yl)methyl]-2,3-dihydrospiro[furo[2,3-g][1,4]benzodioxine-8,3′-indol]-2′(1′H)-one]: 169 to 170 °C, more than 50% and 7.00 to 9.00.
`COCCOc1ccc2c(c1)OCC21C(=O)N(Cc2ccccn2)c2ccccc21` (stereo not drawn) [Example 5.34, 6-(2-methoxyethoxy)-1′-(pyridin-2-ylmethyl)spiro[1-benzofuran-3,3′-indol]-2′(1′H)-one] yielded a melting point of 94 to 95 °C. In addition, the inhibition at 10 µM on CYP3A4 is less than 50%. The pIC50 in the data set with sodium channel was 6.00 to 7.00.
The matching figures for `COCCOc1ccc2c(c1)C1(CO2)C(=O)N(Cc2ccccn2)c2ccccc21` (stereo not drawn) [Example 5.35, 5-(2-methoxyethoxy)-1′-(pyridin-2-ylmethyl)spiro[1-benzofuran-3,3′-indol]-2′(1′H)-one]: 140 to 142 °C, less than 50% and 6.00 to 7.00.
The matching figures for `O=C1N(Cc2ccccn2)c2ccccc2C12COc1c2ccc2c1OCCO2` (stereo not drawn) [Example 5.36, 1-(pyridin-2-ylmethyl)-2,3-dihydrospiro[furo[2,3-f][1,4]benzodioxine-7,3′-indol]-2′(1′H)-one]: 205 to 206 °C, less than 50% and 6.00 to 7.00.
The compound `O=C1N(Cc2ncccc2C(F)(F)F)c2ccccc2C12COc1c2ccc2c1OCCO2` (stereo not drawn) [Example 5.37, 1′-{[3-(trifluoromethyl)pyridin-2-yl]methyl}-2,3-dihyrospiro[furo[2,3-f][1,4]benzodioxine-7,3′-indol]-2′(1′H)-one] showed a melting point of 206 to 207 °C. Moreover, at CYP3A4, the inhibition at 10 µM was less than 50%. The pIC50 with sodium channel was 6.00 to 7.00.
For the compound `O=C1N(Cc2cc(=O)[nH]c(=O)[nH]2)c2ccccc2C12COc1cc3c(cc12)OCO3` (stereo not drawn) [Example 5.38, 6-[(2′-oxospiro[furo[2,3-f][1,3]benzodioxole-7,3′-indol]-1′(2′H)-yl)methyl]pyrimidine-2,4(1H,3H)-dione], the melting point was more than 300 °C. Further, the inhibition at 10 µM at CYP3A4 is less than 50%. In addition, the pIC50 in the data set on sodium channel was 5.00 to 6.00.
For `O=C1N(Cc2nsc(Cl)n2)c2ccccc2C12COc1cc3c(cc12)OCO3` (stereo not drawn) [Example 6, 1′-[(5-chloro-1,2,4-thiadiazol-3-yl)methyl]spiro[furo[2,3-f][1,3]benzodioxole-7,3′-indol]-2′(1′H)-one], the melting point was 114 to 116 °C. The inhibition at 10 µM on CYP3A4 was more than 50%. In the data set with sodium channel, the pIC50 is 7.00 to 9.00.
The matching figures for `O=C1N(Cc2nsc(Cl)n2)c2cccc(Cl)c2C12COc1cc3c(cc12)OCO3` (stereo not drawn) [Example 6.1, 4′-chloro-1′-[(5-chloro-1,2,4-thiadiazol-3-yl)methyl]spiro[furo[2,3-f][1,3]benzodioxole-7,3′-indol]-2′(1′H)-one]: 174 to 176 °C, more than 50% and 7.00 to 9.00.
Compound `O=C1N(Cc2sccc2Cl)c2ccccc2C12COc1cc3c(cc12)OCO3` (stereo not drawn) [Example 6.3, 1′-[(3-chlorothiophen-2-yl)methyl]spiro[furo[2,3-f][1,3]benzodioxole-7,3′-indol]-2′(1′H)-one] registered a melting point of 161 to 163 °C. The inhibition at 10 µM on CYP3A4 was more than 50%. In addition, the pIC50 in the data set with sodium channel is 7.00 to 9.00.
`Cc1onc(-c2c(Cl)cccc2Cl)c1CN1C(=O)C2(COc3cc4c(cc32)OCO4)c2ccccc21` (stereo not drawn) [Example 6.4, 1′-{[3-(2,6-dichlorophenyl)-5-methylisoxazol-4-yl]methyl}spiro[furo[2,3-f][1,3]benzodioxole-7,3′-indol]-2′(1′H)-one]: the melting point was in the range of 190 to 192 °C. Moreover, the inhibition at 10 µM on CYP3A4 was more than 50%. In addition, in the data set with sodium channel, the pIC50 was 5.00 to 6.00.
The matching figures for `O=C1N(Cc2csc(-c3ccc(C(F)(F)F)cc3)n2)c2ccccc2C12COc1cc3c(cc12)OCO3` (stereo not drawn) [Example 6.5, 1′-({2-[4-(trifluoromethyl)phenyl]-1,3-thiazol-4-yl}methyl)spiro[furo[2,3-f][1,3]benzodioxole-7,3′-indol]-2′(1′H)-one]: 151 to 153 °C, more than 50% and 6.00 to 7.00.
